For assay [1], the target named is T1, muscarinic receptors (M1-site, pirenzepine sensitive site) (Rattus norvegicus, UniProt P08482).
T1 construct: Fresh cortex (0.1-1 9) from male Wistar rats (150-200 g) is homogenized; from tissue; host or cells: rat cerebral cortex membranes
T1 sequence (P08482 1-460): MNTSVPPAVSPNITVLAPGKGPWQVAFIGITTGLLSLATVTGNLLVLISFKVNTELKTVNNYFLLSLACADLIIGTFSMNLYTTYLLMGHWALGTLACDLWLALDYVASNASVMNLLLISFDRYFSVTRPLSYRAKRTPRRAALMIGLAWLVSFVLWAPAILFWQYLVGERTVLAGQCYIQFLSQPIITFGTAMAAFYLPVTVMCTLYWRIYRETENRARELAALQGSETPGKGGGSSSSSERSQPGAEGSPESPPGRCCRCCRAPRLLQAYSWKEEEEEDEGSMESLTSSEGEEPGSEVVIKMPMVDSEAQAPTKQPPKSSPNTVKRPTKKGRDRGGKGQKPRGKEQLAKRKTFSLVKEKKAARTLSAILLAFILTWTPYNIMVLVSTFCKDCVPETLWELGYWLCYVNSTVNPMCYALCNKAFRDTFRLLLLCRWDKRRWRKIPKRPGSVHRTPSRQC
The assay can be described thus: Inhibition of ^3HPRZ (pirenzepine) binding to rat cerebral cortex membranes. On the set-up: species or system male Wistar rats. As to conditions: 1.0 nM ^3HPRZ, 60 min at 20°C. On the procedure: Furthermore the pharmacological properties of the compounds of the invention can also be illustrated by determining their capability to inhibit ^3HPRZ (pirenzepine, [N-methyl^-3H]) binding to rat cerebral cortex membranes.
Pirenzepine binds selectively to subtype of muscarinic receptors. Historically the type is named the M1-site, whereas pirenzepine sensitive site would be more appropriate. Although selective for M1-sites pirenzepine also interact with M2-sites.
All preparations are performed at 0-4°C unless otherwise indicated. Fresh cortex (0.1-1 9) from male Wistar rats (150-200 g) is homogenized for 5-10 s in 10 mL 20 mM Hepes pH: 7.4, with an Ultra-Turrax homogenizer. The homogenizer is rinsed with 2 x 10 mL of buffer and the combined suspension centrifuged for 15 min. at 40,000 x g. The pellet is washed three times with buffer. In each step the pellet is homogenized as before in 3 x 10 mL of buffer and centrifuged for 10 min. at 40,000 x g.
The final pellet is homogenized in 20 mM Hepes pH: 7.4 (100 mL per g of original tissue) and used for binding assay. Aliquots of 0.5 mL is added 20 µL of test solution and 25 µL of ^3HPRZ (1.0 nM, final conc.), mixed and incubated for 60 min. at 20°C. Non-specific binding is determined in triplicate using atropine (1.0 µg/mL, final conc.) as the test substance. After incubation samples are added 5 mL of ice-cold buffer and poured directly onto Whatman GF/C glass fiber filters under suction and immediately washed 2 times with 5 mL of ice-cold buffer. The amount of radioactivity on the filters are determined by conventional liquid scintillation counting. Specific binding is total binding minus non-specific binding.
Test substances are dissolved in 10 mL water, at a concentration of 0.22 mg/mL. 25-75% inhibition of specific binding must be obtained before calculation of IC50.
The test value will be given as IC50 (the concentration (nM) of the test substance which inhibits the specific binding of ^3HPRZ by 50%). IC50 = (applied test substance concentration) x(Cx/Co-Cx)nM where Co is specific binding in control assays and Cx is the specific binding in the test assay. (The calculations assume normal mass-action kinetics).

The target of assay [2] is muscarinic acetylcholine receptors. As to the kind of experiment: Inhibition of specific binding of ^3H-Oxotremorine-M to rat cortex homogenate. More on the design: species or system male Wistar rats. As to conditions: 1.0 nM ^3H-Oxotremorine, 30 min at 25°C, read-out: ^3H-Oxo-M IC50. The source says: The pharmacological properties of the compounds of the invention can be illustrated by determining their capability to inhibit the specific binding of ^3H-Oxotremorine-M (^3H-Oxo). Birdsdall N.J.M., Hulme E.C., and Burgen A.S.V. (1980). "The Character of Muscarinic Receptors in Different Regions of the Rat Brain". Proc. Roy. Soc. London (Series B) 207,1.
^3H-Oxo labels muscarinic receptor in the CNS (with a preference for agonist domains of the receptors). Three different sites are labeled by ^3H-Oxo. […] Using the present experimental conditions only the high and medium affinity sites are determined.
The inhibitory effects of compounds on ^3H-oxo binding reflects the affinity for muscarinic acetylcholine receptors.
All preparations are performed at 0-4°C unless otherwise indicated. Fresh cortex (0.1-1 g) from male Wistar rats (150-250 g) is homogenized for 5-10 s in 10 mL […] Hepes pH: 7.4, with an Ultra-Turrax homogenizer. The homogenizer is rinsed with 10 mL of buffer and the combined suspension centrifuged for 15 min. at 40,000 x g. The pellet is washed three times with buffer. In each step the pellet is homogenized as before in 2 x 10 mL of buffer and centrifuged for 10 min. at 40,000 x g.
The final pellet is homogenized in 20 mM Hepes pH: 7.4 (100 mL per g of original tissue) and used for binding assay. Aliquots of 0.5 mL is added 25 µL of test solution and 25 µL of ^3H-Oxotremorine (1.0 nM, final concentration) mixed and incubated for 30 min. at 25°C. Non-specific binding is determined in triplicate using arecoline (1 µg/mL, final concentration) as the test substance. After incubation samples are added 5 mL of ice-cold buffer and poured directly onto Whatman GF/C glass fiber filters under suction and immediately washed 2 times with 5 mL of ice-cold buffer. The amount of radioactivity on the filters are determined by conventional liquid scintillation counting. Specific binding is total binding minus non specific binding.
Test substances are dissolved in 10 mL water (if necessary heated on a steam-bath for less than 5 min.) at a concentration of 2.2 mg/mL. 25-75% inhibition of specific binding must be obtained before calculation of IC50. The test value will be given as IC50 (the concentration (nM) of the test substance which inhibits the specific binding of ^3H-oxo by 50%). IC50 = (applied test substance concentration) x(Cx/Co-Cx)nM where Co is specific binding in control assays and Cx is the specific binding in the test assay. (The calculations assume normal mass-action kinetics).

The values below come from patent publication EP0776896A1, “Heterocyclic compounds and their use” (priority 1995, dated 1997).

Like-named read-outs stand apart in the source and are kept apart here.

One may read the IC50 as the concentration at which inhibition is half-maximal.

Take `CCCCOc1nsnc1C1CC2CCC1NC2` (single isomer, unassigned) [Compound 4, ENDO 2-aza-6-(4-butyloxy-1,2,5-thiadiaz-3-yl)-bicyclo[2.2.2]octane]: the IC50 was found to be 17 nM in assay [1] (read-out: ^3HPRZ IC50) and 4.2 nM in assay [2].
The corresponding values for `CCCCOc1nsnc1C1CC2CCC1NC2` (single isomer, unassigned) [Compound 5, EXO 2-aza-6-(4-butyloxy-1,2,5-thiadiaz-3-yl)bicyclo[2.2.2]octane] are 139 nM and 143 nM.
Consider `CCCCCCOc1nsnc1C1CC2CCC1N(C)C2` (single isomer, unassigned) [Compound 7, ENDO 2-Aza-6-(4-hexyloxy-1,2,5-thiadiaz-3-yl)-2-methylbicyclo[2.2.2]octane], for which the IC50 in assay [1] (read-out: ^3HPRZ IC50) is 21 nM.
Turning to `CCCCCCOc1nsnc1C1CC2CCC1N(C)C2` (single isomer, unassigned) [Compound 8, EXO 2-Aza-6-(4-hexyloxy-1,2,5-thiadiaz-3-yl)-2-methylbicyclo[2.2.2]octane], in assay [1] (read-out: ^3HPRZ IC50), the IC50 was found to be 58 nM.
With `CCCCSc1nsnc1C1CC2CCC1NC2` (stereo not drawn) [Compound 9, ENDO 2-aza-6-(4-butylthio-1,2,5-thiadiaz-3-yl)bicyclo[2.2.2]octane], the IC50 was determined as 2.7 nM in assay [1] (read-out: ^3HPRZ IC50) and 2 nM in assay [2].
The corresponding values for `CCCSc1nsnc1C1CC2CCC1NC2` (stereo not drawn) [Compound 11, ENDO 2-Aza-6-(4-propylthio-1,2,5-thiadiaz-3-yl)bicyclo[2.2.2]octane] are 13 nM and 4.1 nM.
The corresponding values for `CCCOc1nsnc1C1CC2CCC1NC2` (stereo not drawn) [Compound 13, EXO 2-Aza-6-(4-propoxy-1,2,5-thiadiaz-3-yl)bicyclo[2.2.2]octane] are 172 nM and 263 nM.
The corresponding values for `CSc1nsnc1C1CC2CCC1NC2` (stereo not drawn) [Compound 14, EXO 2-Aza-6-(4-methylthio-1,2,5-thiadiaz-3-yl)bicyclo[2.2.2]octane] are 365 nM and 685 nM.
Regarding `CCCCCSc1nsnc1C1CC2CCC1NC2` (stereo not drawn) [Compound 15, ENDO 2-aza-6-(4-thiopentyl-1,2,5-thiadiaz-3-yl)bicyclo[2.2.2]octane], the IC50 is 5 nM in assay [1] (^3HPRZ IC50,nM) and 3.4 nM in assay [2].
As for `CCCCCSc1nsnc1C1CC2CCC1NC2` (stereo not drawn) [Compound 16, EXO 2-aza-6-(4-pentylthio-1,2,5-thiadiaz-3-yl)-bicyclo[2.2.2]octane], the IC50 in assay [1] (^3HPRZ IC50,nM) came to 45 nM; in assay [2] it was 83 nM.
Turning to `CC(C)CCCSc1nsnc1C1CC2CCC1NC2` (stereo not drawn) [Compound 17], the IC50 in assay [1] (read-out: ^3HPRZ IC50) came to 170 nM.
The same measure, in the same setting: the value for `CC(C)CCCSc1nsnc1C1CC2CCC1NC2` (stereo not drawn) [Compound 18, ENDO 2-Aza-6-(4-((4-methylpentyl)thio)-1,2,5-thiadiaz-3-yl)bicyclo[2.2.2]octane] was 13 nM.
For `CSc1nsnc1C1CC2CCC1NC2` (stereo not drawn) [Compound 19], the 50% inhibitory concentration (IC50) in assay [1] (read-out: ^3HPRZ IC50) was 128 nM; in assay [2], 18 nM.
For the molecule `FC(F)(F)CCCSc1nsnc1C1CC2CCC1NC2` (stereo not drawn) [Compound 20, ENDO 2-Aza-6-(4-((4,4,4-trifluorobutyl)thio)-1,2,5-thiadiaz-3-yl)-bicyclo[2.2.2]octane], in assay [1] (read-out: ^3HPRZ IC50), the IC50 stood at 5.5 nM.
Take `FC(F)(F)c1ccc(CSc2nsnc2C2CC3CCC2NC3)cc1` (stereo not drawn) [Compound 22, EXO 2-Aza-6-(4-(((4-trifluoromethyl)phenyl)methylthio)-1,2,5-thiadiaz-3-yl)-bicyclo[2.2.2]octane]: in assay [1] (read-out: ^3HPRZ IC50), the concentration for half-maximal inhibition (IC50) was determined as 444 nM.
On to `N#Cc1ccc(CSc2nsnc2C2CC3CCC2NC3)cc1` (stereo not drawn) [Compound 23, ENDO 2-Aza-6-(4-((4-cyanophenyl)methylthio)-1,2,5-thiadiaz-3-yl)-bicyclo[2.2.2]octane], for which the half-maximal inhibitory concentration (IC50) stood at 36 nM in assay [1] (^3HPRZ IC50,nM) and 26 nM in assay [2].
The corresponding values for `N#Cc1ccc(CSc2nsnc2C2CC3CCC2NC3)cc1` (stereo not drawn) [Compound 24, EXO 2-Aza-6-(4-((4-cyanophenyl)methylthio)-1,2,5-thiadiaz-3-yl)-bicyclo[2.2.2]octane] are 91 nM and 60 nM.
With `N#Cc1ccc(CSc2nsnc2C2CC3CCC2NC3)s1` (stereo not drawn) [Compound 25, ENDO 2-Aza-6-(4-((5-cyanothien-2-yl)methylthio)-1,2,5-thiadiaz-3-yl)-bicyclo[2.2.2]octane], the half-inhibitory concentration (IC50) in assay [1] (read-out: ^3HPRZ IC50) was 6.2 nM.
Still for that read-out and setting: the figure for `N#Cc1ccc(CSc2nsnc2C2CC3CCC2NC3)s1` (stereo not drawn) [Compound 26, EXO 2-Aza-6-(4-((5-cyanothien-2-yl)methylthio)-1,2,5-thiadiaz-3-yl)-bicyclo[2.2.2]octane] is 20 nM.
Turning to `CCCCCCSc1nsnc1C1CC2CCC1NC2` (stereo not drawn) [Compound 27, EXO 2-Aza-6-(4-hexylthio-1,2,5-thiadiaz-3-yl)bicyclo[2.2.2]octane], the IC50 in assay [1] (read-out: ^3HPRZ IC50) came out at 2.3 nM.
On the same count and under the same terms, the value for `CCCCCCSc1nsnc1C1CC2CCC1NC2` (stereo not drawn) [Compound 28, EXO 2-Aza-6-(4-hexylthio-1,2,5-thiadiaz-3-yl)bicyclo[2.2.2]octane] was 62 nM.
`CCCCCOc1nsnc1C1CC2CCC1NC2` (stereo not drawn) [Compound 30, ENDO 2-aza-6-(4-pentoxy-1,2,5-thiadiaz-3-yl)-bicyclo[2.2.2]octane]: in assay [1] (read-out: ^3HPRZ IC50), the IC50 came out at 15 nM.
In the case of `CCCCCOc1nsnc1C1CC2CCC1NC2` (stereo not drawn) [Compound 31, EXO 2-aza-6-(4-pentoxy-1,2,5-thiadiaz-3-yl)bicyclo[2.2.2]octane], the IC50 in assay [1] (read-out: ^3HPRZ IC50) was found to be 80 nM.
Same read-out and setting: the figure for `FC(F)(F)c1ccc(COc2nsnc2C2CC3CCC2NC3)cc1` (stereo not drawn) [Compound 32, EXO 2-Aza-6-(4-((4-trifluoromethylphenyl)methoxy)-1,2,5-thiadiaz-3-yl)-bicyclo[2.2.2]octane] is 244 nM.
Still for that read-out and setting: the figure for `FC(F)(F)c1ccc(COc2nsnc2C2CC3CCC2NC3)cc1` (stereo not drawn) [Compound 33, EXO 2-Aza-6-(4-((4-trifluoromethylphenyl)methoxy)-1,2,5-thiadiaz-3-yl)-bicyclo[2.2.2]octane] is 273 nM.
